Results taken from patent publication US6737383B1, “Herbicidal oxadiazolidines” (priority 1999, dated 2004).

How the values were obtained:
velvetleaf = experiment: Test B pre/postemergence velvetleaf; format: in vivo, Abutilon theophrasti
Summary of the method: (§1)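 Herbicidal effect was estimated by eye on a ten-point control scale after plants spent twelve to sixteen days in a greenhouse following soil or foliar treatment. Foliar sprays targeted plants at one to four leaves; all doses were formulated in a non-phytotoxic solvent with surfactant.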

giant foxtail = experiment: Test B pre/postemergence giant foxtail; format: in vivo, Setaria faberii
Summary of the method: as §1

bamyardgrass = experiment: Test B flood test barnyardgrass; format: in vivo, Echinochloa crus-galli
Summary of the method: (§2)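 Flood test on plants grown to the 2-leaf stage; treated plants kept in greenhouse twelve to sixteen days, then visually rated against controls on a 0 (no effect) to 10 (complete control) scale.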

wheat = experiment: Test B pre/postemergence wheat; format: in vivo, Triticum aestivum
Summary of the method: as §1

surinam grass = experiment: Test B pre/postemergence surinam grass; format: in vivo, Brachiaria decumbens
Summary of the method: as §1

morningglory = experiment: Test B pre/postemergence morningglory; format: in vivo, Ipomoea hederacea
Summary of the method: as §1

pigweed = experiment: Test B pre/postemergence pigweed; format: in vivo, Amaranthus retroflexus
Summary of the method: as §1

corn = experiment: Test B pre/postemergence corn; format: in vivo, Zea mays
Summary of the method: as §1

wild oat = experiment: Test B pre/postemergence wild oat; format: in vivo, Avena fatua
Summary of the method: as §1

duck salad = experiment: Test B flood test duck salad; format: in vivo, Heteranthera limosa
Summary of the method: as §2

sugar beet = experiment: Test B pre/postemergence sugar beet; format: in vivo, Beta vulgaris
Summary of the method: as §1

cocklebur = experiment: Test B pre/postemergence cocklebur; format: in vivo, Xanthium strumarium
Summary of the method: as §1

soybean = experiment: Test B pre/postemergence soybean; format: in vivo, Glycine max
Summary of the method: as §1

rice = experiment: Test B flood test rice; format: in vivo, Oryza sativa
Summary of the method: as §2

rape = experiment: Test B pre/postemergence rape; format: in vivo, Brassica napus
Summary of the method: as §1

smallflower flatsedge = experiment: Test B flood test smallflower flatsedge; format: in vivo, Cyperus difformis
Summary of the method: as §2

[1] = Postemergence, Rate 125 g/ha, scale of 0 to 10 where 0 is no effect and 10 is complete control
[2] = Postemergence, Rate 250 g/ha, scale of 0 to 10, 0 is no effect, 10 is complete control
[3] = Postemergence, Rate 1000 g/ha, scale 0 to 10 (0 no effect, 10 complete control)
[4] = Preemergence, Rate 125 g/ha, scale of 0 to 10 where 0 is no effect and 10 is complete control
[5] = Preemergence, Rate 250 g/ha, scale 0 to 10 (0 no effect, 10 complete control)
[6] = Preemergence, Rate 500 g/ha, scale of 0 to 10 where 0 is no effect and 10 is complete control
[7] = Rate 1000 g/ha, Preemergence, scale 0 to 10 (0 no effect, 10 complete control)
[8] = Postemergence, Rate 500 g/ha, scale of 0 to 10 where 0 is no effect and 10 is complete control
[9] = Pre-emergence, Rate 1000 g/ha, scale 0 to 10 (0 no effect, 10 complete control)
[10] = Rate 125 g/ha, under heading Pre-emergence, flood test species, visual evaluation after twelve to sixteen days
[11] = Rate 250 g/ha, Pre-emergence (flood test species), scale 0 to 10, 0 is no effect, 10 is complete control
[12] = Rate 500 g/ha, Pre-emergence section of Table B, 0 to 10 scale (0 no effect, 10 complete control)

In the case of `CCOP(=O)(OCC)C(C)n1c(=O)on(C(=O)N(c2ccc(F)cc2)C(C)C)c1=O` (stereo not shown) [Compound 617], the “Plant response rating, Velvetleaf” value (velvetleaf; [1]) is reported as 0, the “Velvetleaf plant response rating” value (velvetleaf; [2]) is reported as 0 and the “Velvetleaf plant response rating” value (velvetleaf; [3]) is reported as 2. For the same compound, the “Velvetleaf plant response rating” value (velvetleaf; [4]) was 0, the “Plant response rating, Velvetleaf” value (velvetleaf; [5]) was 0 and the “Plant response rating, Velvetleaf” value (velvetleaf; [6]) was 0. The “Plant response rating, Velvetleaf” value (velvetleaf; [7]) was 0, the “Plant response rating, Giant foxtail” value (giant foxtail; [1]) was 0 and the “Giant foxtail plant response rating” value (giant foxtail; [2]) was 4. The “Plant response rating, Giant foxtail” value (giant foxtail; [8]) was 0, the “Giant foxtail plant response rating” value (giant foxtail; [3]) was 6 and the “Giant foxtail plant response rating” value (giant foxtail; [4]) was 9. For the same compound, the “Plant response rating, Giant foxtail” value (giant foxtail; [5]) was 9, the “Plant response rating, Giant foxtail” value (giant foxtail; [6]) was 9 and the “Plant response rating, Giant foxtail” value (giant foxtail; [7]) was 10. The “Barnyardgrass plant response rating” value (bamyardgrass; [9]) was 0, the “Barnyardgrass plant response rating (0 to 10 scale, 0 is no effect, 10 is complete control)” value (bamyardgrass; [10]) was 0 and the “Barnyardgrass plant response rating” value (bamyardgrass; [11]) was 0. The “Barnyardgrass plant response rating” value (bamyardgrass; [12]) was 0, the “Plant response rating, Wheat” value (wheat; [1]) was 0 and the “Wheat plant response rating” value (wheat; [2]) was 0. For the same compound, the “Wheat plant response rating” value (wheat; [3]) was 0, the “Wheat plant response rating” value (wheat; [4]) was 0 and the “Plant response rating, Wheat” value (wheat; [5]) was 0. The “Plant response rating, Wheat” value (wheat; [6]) was 0, the “Plant response rating, Wheat” value (wheat; [7]) was 2 and the “Plant response rating, B. signalgrass” value (surinam grass; [1]) was 0. For the same compound, the “B. signalgrass plant response rating” value (surinam grass; [2]) was 0, the “Plant response rating, B. signalgrass” value (surinam grass; [8]) was 0 and the “B. signalgrass plant response rating” value (surinam grass; [3]) was 3. The “B. signalgrass plant response rating” value (surinam grass; [4]) was 0, the “Plant response rating, B. signalgrass” value (surinam grass; [5]) was 4 and the “B. signalgrass plant response rating” value (surinam grass; [6]) was 5. For the same compound, the “Plant response rating, B. signalgrass” value (surinam grass; [7]) was 8, the “Plant response rating, Morningglory” value (morningglory; [1]) was 0 and the “Morningglory plant response rating” value (morningglory; [2]) was 0. For the same compound, the “Plant response rating, Morningglory” value (morningglory; [8]) was 3, the “Morningglory plant response rating” value (morningglory; [3]) was 6 and the “Morningglory plant response rating” value (morningglory; [4]) was 0. The “Plant response rating, Morningglory” value (morningglory; [5]) was 0, the “Plant response rating, Morningglory” value (morningglory; [6]) was 0 and the “Plant response rating, Morningglory” value (morningglory; [7]) was 0. The “Plant response rating, Redroot pigweed” value (pigweed; [1]) was 0, the “Redroot pigweed plant response rating” value (pigweed; [2]) was 0 and the “Redroot pigweed plant response rating” value (pigweed; [3]) was 0. The “Redroot pigweed plant response rating” value (pigweed; [4]) was 0, the “Plant response rating, Redroot pigweed” value (pigweed; [5]) was 0 and the “Plant response rating, Redroot pigweed” value (pigweed; [6]) was 0. For the same compound, the “Plant response rating, Redroot pigweed” value (pigweed; [7]) was 0, the “Plant response rating, Corn” value (corn; [1]) was 0 and the “Corn plant response rating” value (corn; [2]) was 0. For the same compound, the “Plant response rating, Corn” value (corn; [8]) was 0, the “Corn plant response rating” value (corn; [3]) was 0 and the “Corn plant response rating” value (corn; [4]) was 0. The “Plant response rating, Corn” value (corn; [5]) was 0, the “Plant response rating, Corn” value (corn; [6]) was 0 and the “Plant response rating, Corn” value (corn; [7]) was 0. The “Plant response rating, Wild oats” value (wild oat; [1]) was 0, the “Wild oats plant response rating” value (wild oat; [2]) was 0 and the “Wild oats plant response rating” value (wild oat; [3]) was 0. For the same compound, the “Wild oats plant response rating” value (wild oat; [4]) was 0, the “Plant response rating, Wild oats” value (wild oat; [5]) was 2 and the “Plant response rating, Wild oats” value (wild oat; [6]) was 3. The “Plant response rating, Wild oats” value (wild oat; [7]) was 9, the “Ducksalad plant response rating” value (duck salad; [9]) was 0 and the “Ducksalad plant response rating (0 to 10 scale, 0 is no effect, 10 is complete control)” value (duck salad; [10]) was 0. For the same compound, the “Ducksalad plant response rating” value (duck salad; [11]) was 0, the “Ducksalad plant response rating” value (duck salad; [12]) was 0 and the “Plant response rating, Sugarbeets” value (sugar beet; [1]) was 0. The “Sugarbeets plant response rating” value (sugar beet; [2]) was 0, the “Sugarbeets plant response rating” value (sugar beet; [3]) was 0 and the “Sugarbeets plant response rating” value (sugar beet; [4]) was 0. For the same compound, the “Plant response rating, Sugarbeets” value (sugar beet; [5]) was 0, the “Plant response rating, Sugarbeets” value (sugar beet; [6]) was 0 and the “Plant response rating, Sugarbeets” value (sugar beet; [7]) was 0. For the same compound, the “Plant response rating, Cocklebur” value (cocklebur; [1]) was 0, the “Cocklebur plant response rating” value (cocklebur; [2]) was 0 and the “Plant response rating, Cocklebur” value (cocklebur; [8]) was 2. The “Cocklebur plant response rating” value (cocklebur; [3]) was 3, the “Cocklebur plant response rating” value (cocklebur; [4]) was 0 and the “Plant response rating, Cocklebur” value (cocklebur; [5]) was 0. The “Plant response rating, Cocklebur” value (cocklebur; [6]) was 0, the “Plant response rating, Cocklebur” value (cocklebur; [7]) was 0 and the “Plant response rating, Soybean” value (soybean; [1]) was 1. The “Soybean plant response rating” value (soybean; [2]) was 3, the “Soybean plant response rating” value (soybean; [3]) was 7 and the “Soybean plant response rating” value (soybean; [4]) was 0. The “Plant response rating, Soybean” value (soybean; [5]) was 0, the “Plant response rating, Soybean” value (soybean; [6]) was 0 and the “Plant response rating, Soybean” value (soybean; [7]) was 1. For the same compound, the “Rice plant response rating” value (rice; [9]) was 0, the “Rice plant response rating (0 to 10 scale, 0 is no effect, 10 is complete control)” value (rice; [10]) was 0 and the “Rice plant response rating” value (rice; [11]) was 0. The “Rice plant response rating” value (rice; [12]) was 0, the “Plant response rating, Rape” value (rape; [1]) was 0 and the “Rape plant response rating” value (rape; [2]) was 0. The “Plant response rating, Rape” value (rape; [8]) was 0, the “Rape plant response rating” value (rape; [3]) was 0 and the “Rape plant response rating” value (rape; [4]) was 0. The “Plant response rating, Rape” value (rape; [5]) was 0, the “Plant response rating, Rape” value (rape; [6]) was 0 and the “Plant response rating, Rape” value (rape; [7]) was 0. For the same compound, the “S. Flatsedge plant response rating” value (smallflower flatsedge; [9]) was 0, the “S. Flatsedge plant response rating (0 to 10 scale, 0 is no effect, 10 is complete control)” value (smallflower flatsedge; [10]) was 0 and the “S. Flatsedge plant response rating” value (smallflower flatsedge; [11]) was 0. The “S. Flatsedge plant response rating” value (smallflower flatsedge; [12]) was 0.
